Consider 37 compounds from ChEMBL document CHEMBL1857833, “Screening and optimization of specific chemical series against human African Trypanosomiasis (HAT)”.

Converted amounts (≈) assume the structure as drawn. “And” between values parts separate entries of the source, which are not always exact repeats. Identical values can stand only once.

Series [1] concerns Trypanosoma brucei. Briefly: DNDI: Inhibition of Human African Trypanosomiasis, SBRI 427, in vitro. In kind it is functional, organism-based.
Series [2] in a line: DNDI: Cytotoxicity against L929 mouse fibroblasts, 72 hour. In kind it is toxicity, cell-based. Conditions: mouse, L929 mouse fibroblasts.
Series [3] in a line: DNDI: Cytotoxicity against L929 mouse fibroblasts, CYTO-SP, 24 hour. Conditions: mouse, L929 mouse fibroblasts. It is filed as toxicity, cell-based.
Setting [4] is: Trypanosoma brucei, SBRI 427, read-out: IC50.

With `CN(C)CCCNc1cc(-c2ccccc2)nc2cc(-c3cccc(F)c3)nn12`, in series [1] (setting [4]), the IC50 came out at 1.13 µg/mL (≈ 2.9 µM). Besides, 2.28 µg/mL (≈ 5.85 µM) corresponded to half-maximal inhibition in series [2] (IC50 at 72 h).
Taken in the same sequence, the figures for `Cc1cc2[nH]c(-c3ccccc3)cc(=O)n2n1` were greater than 5 µg/mL and greater than 10 µg/mL.
Take `CC(C)(C)OC(=O)N1CCC(Nc2cc(-c3ccccc3)nc3cc(-c4ccc(F)cc4)nn23)CC1`: in series [1] (setting [4]), the IC50 was greater than 5 µg/mL. Moreover, in series [2], the IC50 at 72 h is greater than 10 µg/mL.
Compound `COc1cc(C)ccc1Oc1nc(C)ccc1/C(=N/O)NCC1CC1` returned an IC50 at 24 h in series [3] greater than 50 µg/mL.
Turning to `CCN(CC)CCCNc1cc(C)nc2cc(-c3cccc(F)c3)nn12`, the IC50 in series [1] (setting [4]) is greater than 5 µg/mL. In series [2], this compound gave an IC50 at 72 h greater than 10 µg/mL.
Taken in the same sequence, the figures for `Fc1ccc(Oc2nc(Cl)nc3ccsc23)cc1` were greater than 5 µg/mL and greater than 10 µg/mL.
Consider `Cc1ccc(/C(=N/O)NCC(C)(C)C)c(Oc2ccc3ccccc3c2)n1`, for which the IC50 at 24 h in series [3] turned out to be 34 µg/mL (≈ 93.5 µM).
`CC1CCC(N/C(=N\O)c2cccnc2Oc2ccc(F)cc2Cl)CC1` (stereo unspecified) returned an IC50 at 24 h in series [3] of 28 µg/mL (≈ 74.1 µM).
On to `Fc1ccc(-c2cc3nc(-c4ccccc4)cc(NCCCn4ccnc4)n3n2)cc1`, for which the IC50 in series [1] (setting [4]) is 4.04 µg/mL (≈ 9.79 µM). In series [2], the half-inhibitory concentration (IC50) at 72 h was 7.66 µg/mL (≈ 18.6 µM).
Regarding `O/N=C(\NC1CCCC1)c1ccc(Oc2cc(Cl)ccc2Cl)nc1`, the IC50 in series [1] (setting [4]) came out at 1.08 µg/mL (≈ 2.95 µM). Also, the half-inhibitory concentration (IC50) at 24 h in series [3] was 28.8 µg/mL (≈ 78.6 µM).
Take `CC(C)(C)OC(=O)N1CCN(c2cc(-c3ccccc3)nc3cc(-c4ccc(F)cc4)nn23)CC1`: in series [1] (setting [4]), the IC50 was greater than 5 µg/mL. The same compound returned a half-maximal inhibitory concentration (IC50) at 72 h in series [2] greater than 10 µg/mL.
Compound `CCC(CC)N/C(=N\O)c1ccc(C)nc1Oc1ccc(C)cc1OC` registered an IC50 at 24 h in series [3] greater than 50 µg/mL.
Consider `CCO/N=C/c1ccccc1-c1ccccc1`, for which the IC50 in series [1] (setting [4]) is greater than 5 µg/mL. This compound showed an IC50 at 24 h in series [3] greater than 50 µg/mL.
As to `COc1ccc(/C=N/Oc2ccccc2)cc1`, in series [1] (setting [4]), the IC50 was greater than 5 µg/mL. In series [3], this compound had an IC50 at 24 h greater than 50 µg/mL.
As for `Fc1cccc(-c2cc3nc(-c4ccccc4)cc(NCCCn4ccnc4)n3n2)c1`, in series [1] (setting [4]), the concentration for half-maximal inhibition (IC50) amounted to 4.3 µg/mL (≈ 10.4 µM). The compound also registered an IC50 at 72 h in series [2] of 5.91 µg/mL (≈ 14.3 µM).
On to `Cc1cc(NCCN2CCCC2)n2nc(-c3cccc(F)c3)cc2n1`, for which the IC50 in series [1] (setting [4]) was greater than 5 µg/mL. This compound came in with a half-inhibitory concentration (IC50) at 72 h in series [2] greater than 10 µg/mL.
Turning to `C(=N\OCc1ccccc1)/c1ccccc1-c1ccccc1`, in series [1] (setting [4]), the IC50 was greater than 5 µg/mL. Moreover, the IC50 at 24 h in series [3] was greater than 50 µg/mL.
On to `COc1ccccc1Oc1ncccc1/C(=N/O)NC1CCCC1`, for which the 50% inhibitory concentration (IC50) at 24 h in series [3] was greater than 50 µg/mL.
For `Cc1cc(NCC(C)(C)CN(C)C)n2nc(-c3cccc(F)c3)cc2n1`, the IC50 in series [1] (setting [4]) was greater than 5 µg/mL. The midpoint of inhibition in series [2], the IC50 at 72 h, lay at 9.64 µg/mL (≈ 27.1 µM).
With `CCOc1ccccc1CN/C(=N\O)c1cccnc1Oc1ccccc1SC`, in series [3], the IC50 at 24 h is greater than 50 µg/mL.
With `CO/N=C/c1ccc(OC)cc1`, in series [1] (setting [4]), the IC50 is greater than 5 µg/mL. This compound yielded an IC50 at 24 h in series [3] greater than 50 µg/mL.
For `Cc1cc(NCCN2CCOCC2)n2nc(-c3cccc(F)c3)cc2n1`, in series [1] (setting [4]), the IC50 is greater than 5 µg/mL. The same compound registered an IC50 at 72 h in series [2] greater than 10 µg/mL.
Turning to `O=C1CCCN1CCCNc1cc(-c2ccccc2)nc2cc(-c3cccc(F)c3)nn12`, in series [1] (setting [4]), the IC50 is greater than 5 µg/mL. Besides, the half-maximal inhibitory concentration (IC50) at 72 h in series [2] was greater than 10 µg/mL.
For `Cc1cc(NCCCN(C)C)n2nc(-c3cccc(F)c3)cc2n1`, the IC50 in series [1] (setting [4]) is greater than 5 µg/mL. This compound had an IC50 at 72 h in series [2] greater than 10 µg/mL.
In the case of `C[N+]1(C)CCN(c2cc(-c3ccccc3)nc3cc(-c4ccc(F)cc4)nn23)CC1`, the IC50 in series [1] (setting [4]) was greater than 5 µg/mL. This compound also returned an IC50 at 72 h in series [2] greater than 10 µg/mL.
In the case of `Cc1cc(NCCCN2CCCC2)n2nc(-c3cccc(F)c3)cc2n1`, the half-inhibitory concentration (IC50) in series [1] (setting [4]) is greater than 5 µg/mL. Besides, the IC50 at 72 h in series [2] is greater than 10 µg/mL.
As to `C=CCO/N=C/c1ccc(OC)cc1`, the IC50 in series [1] (setting [4]) is greater than 5 µg/mL. The 50% inhibitory concentration (IC50) at 24 h in series [3] was greater than 50 µg/mL.
For the compound `CC(C)(C)COc1ncccc1/C(=N/O)N1CCCc2ccccc21`, the IC50 at 24 h in series [3] was 26 µg/mL (≈ 76.6 µM).
On to `Clc1ccc(-c2nc(CNCCCN3CCCC3)co2)c(Cl)c1`, for which the 50% inhibitory concentration (IC50) in series [1] was 0.62 µg/mL and 1.33 µg/mL. In series [3], this compound registered a 50% inhibitory concentration (IC50) at 24 h of 33.6 µg/mL (≈ 94.8 µM).
As to `Cc1cc(NCCN2CCCCC2)n2nc(-c3cccc(F)c3)cc2n1`, in series [1] (setting [4]), the IC50 was greater than 5 µg/mL. The compound further yielded an IC50 at 72 h in series [2] greater than 10 µg/mL.
`Cc1ccc(/C(=N/O)NCC(C)(C)C)c(Oc2cc(Cl)ccc2Cl)n1`: the IC50 at 24 h in series [3] was found to be 27 µg/mL (≈ 70.6 µM).
Take `Clc1nc(Oc2cccc3ccccc23)c2sccc2n1`: the concentration for half-maximal inhibition (IC50) in series [1] (setting [4]) is greater than 5 µg/mL. This compound returned an IC50 at 72 h in series [2] of 2.52 µg/mL (≈ 8.06 µM).
For `CN(C)CCCNc1cc(-c2ccccc2)nc2cc(-c3ccc(F)cc3)nn12`, the 50% inhibitory concentration (IC50) in series [1] (setting [4]) amounted to 1.1 µg/mL (≈ 2.82 µM). The compound further had an IC50 at 72 h in series [2] of 2.57 µg/mL (≈ 6.6 µM).
As for `O=c1cc(-c2ccccc2)[nH]c2cc(-c3cccc(F)c3)nn12`, in series [1] (setting [4]), the IC50 is greater than 5 µg/mL. For the same compound, the midpoint of inhibition in series [2], the IC50 at 72 h, lay at 4.88 µg/mL (≈ 16 µM).
As to `Brc1nn2ccnc2s1`, in series [1] (setting [4]), the IC50 was greater than 5 µg/mL. Further, the half-maximal inhibitory concentration (IC50) at 72 h in series [2] was greater than 10 µg/mL.
In the same order, the values of `Fc1ccc(-c2cc3nc(-c4ccccc4)cc(NCCCN4CCOCC4)n3n2)cc1` are greater than 5 µg/mL and greater than 10 µg/mL.
Consider `COc1ccc(C(=O)Cc2ccccc2)cc1`, for which the IC50 in series [1] (setting [4]) is greater than 5 µg/mL. The IC50 at 24 h in series [3] is greater than 50 µg/mL.

For orientation: IC50 means the midpoint of a concentration-inhibition curve.
